# Data reported in patent publication US20060084648A1, “Ethynyl derivatives as factor xa inhibitors” (Merck Patent GmbH, priority 2003, published 2006).
# Key:
# [1] = target: T1, TF/FVIIa (Homo sapiens, UniProt P08709); assay: TF/factor VIIa inhibition (TF/FVIIa-IC50, pharmacological data); type: biochemical
# T1 construct: Coagulation factor VIIa initiates the extrinsic part of the coagulation cascade
# From the text: The inhibition of factor VIIa by the compounds according to the invention and the measurement of the anticoagulant and antithrombotic activity can be determined by conventional in-vitro or in-vivo methods. A conventional method for the measurement of the inhibition of factor VIIa is described, for example, by H. F. Ronning et al. in Thrombosis Research 1996, 84, 73-81.
# [2] = target: FXa (Homo sapiens, UniProt P00742); assay: Factor Xa inhibition (FXa-IC50, pharmacological data); type: biochemical
# Sequence of FXa (P00742 235-488 limits assumed): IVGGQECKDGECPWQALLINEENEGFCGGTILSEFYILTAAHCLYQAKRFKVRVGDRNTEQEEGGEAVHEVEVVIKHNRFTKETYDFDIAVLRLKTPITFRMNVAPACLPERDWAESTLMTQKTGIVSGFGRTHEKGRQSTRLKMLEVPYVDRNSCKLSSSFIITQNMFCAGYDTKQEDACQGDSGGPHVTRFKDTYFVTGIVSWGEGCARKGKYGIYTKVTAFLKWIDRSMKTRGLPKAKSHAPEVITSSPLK
# Sequence of FXa (P00742 41-179 limits assumed): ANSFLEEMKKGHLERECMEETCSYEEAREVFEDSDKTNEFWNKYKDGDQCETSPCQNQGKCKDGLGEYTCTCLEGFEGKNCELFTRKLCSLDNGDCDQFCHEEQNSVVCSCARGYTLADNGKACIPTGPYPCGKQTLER
# From the text: The inhibition of factor Xa by the compounds according to the invention and the measurement of the anticoagulant and antithrombotic activity can be determined by conventional in-vitro or in-vivo methods. A suitable method is described, for example, by J. Hauptmann et al. in Thrombosis and Haemostasis 1990, 63, 220-223.
# The inhibition of factor Xa can be measured, for example by the method of T. Hara et al. in Thromb. Haemostas. 1994, 71, 314-319.
# T1 sequence (P08709 213-466 limits assumed): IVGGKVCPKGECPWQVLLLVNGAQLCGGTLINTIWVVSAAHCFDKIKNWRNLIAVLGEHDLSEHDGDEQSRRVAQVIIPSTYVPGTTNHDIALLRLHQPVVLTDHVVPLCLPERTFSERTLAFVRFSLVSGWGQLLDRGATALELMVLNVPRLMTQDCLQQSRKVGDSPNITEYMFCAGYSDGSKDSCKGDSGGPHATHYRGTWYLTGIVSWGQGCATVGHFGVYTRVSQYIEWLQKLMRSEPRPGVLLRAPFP
# T1 sequence (P08709 61-212 limits assumed): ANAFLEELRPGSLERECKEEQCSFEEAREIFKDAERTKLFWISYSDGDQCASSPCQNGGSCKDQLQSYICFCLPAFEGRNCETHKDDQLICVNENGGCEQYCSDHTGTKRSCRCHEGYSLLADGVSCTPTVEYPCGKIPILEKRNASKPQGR
# T1 sequence (P13726 33-295 partner): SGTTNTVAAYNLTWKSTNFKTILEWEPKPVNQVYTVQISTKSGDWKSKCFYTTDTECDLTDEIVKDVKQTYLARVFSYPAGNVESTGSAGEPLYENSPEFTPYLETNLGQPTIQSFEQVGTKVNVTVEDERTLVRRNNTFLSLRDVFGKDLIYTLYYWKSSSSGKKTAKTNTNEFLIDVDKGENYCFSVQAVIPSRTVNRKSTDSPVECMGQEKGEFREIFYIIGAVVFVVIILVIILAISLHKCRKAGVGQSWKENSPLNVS
SMILES,IC50 [1],melting point,IC50 [2]
"C#Cc1ccc(NC(=O)N[C@H](CCC)C(=O)Nc2ccc(N3CCOCC3=O)cc2)cc1 [AA, (R)-2-[3-(4-ethynylphenyl)ureido]-N-[4-(3-oxomorpholin-4-yl)-phenyl]valeramide]",88 nM,182 °C,25 nM
"C#Cc1ccc(NC(=O)N[C@H](CC(C)C)C(=O)Nc2ccc(N3CCOCC3=O)cc2)cc1 [AB, (R)-2-[3-(4-ethynylphenyl)ureido]-N-[4-(3-oxomorpholin-4-yl)phenyl]4-methylvaleramide]",41 nM,,36 nM
"C#Cc1ccc(NC(=O)N[C@H](CC(C)C)C(=O)Nc2ccc(N3CCNC3=N)cc2)cc1 [AC, (R)-2-[3-(4-ethynylphenyl)ureido]-N-[4-(2-iminoimidazolidin-1-yl)phenyl]4-methylvaleramide]",240 nM,,46 nM
C#Cc1ccc(NC(=O)N[C@H](CO)C(=O)Nc2ccc(N3CCOCC3=O)cc2)cc1 [Compound 5],33 nM,,42 nM
C#Cc1ccc(NC(=O)N[C@H](COC)C(=O)Nc2ccc(N3CCOCC3=O)cc2)cc1 [Compound 6],37 nM,,22 nM
